Measured values: PubChem BioAssay AID1259411 (Chemical Carcinogenesis Research Information System (CCRIS), 2018)
Activity calls are given as the source filed them. How the calls were made is not given here.

System: rodent carcinogenicity bioassays, tumor incidence
Experiment: CCRIS carcinogenicity studies
Procedure, shortened: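 Archive of carcinogenicity, mutagenicity, tumor promotion and tumor inhibition results drawn from journals, NCI reports and other sources, expert-reviewed; covers 1985-2011 and is no longer updated.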

O=NN(CCO)CCO
carcinogen call (Species: HAMSTER, Route: SUBCUTANEOUS, Tumor Site: Type of Lesion: LIVER, INJECTION SITE, NASAL CAVITY, TRACHEA, Tumor Site: Type of Lesion: LIVER, INJECTION SITE, NASAL CAVITY, TRACHEA): active; positive
carcinogen call (Species: HAMSTER, Strain/Sex: SYRIAN/FEMALE, Route: SUBCUTANEOUS, Dose: 0, 250, 500, 1000 MG/KG IN SALINE 1/WK FOR DURATION OF STUDY (STUDY DURATION: 41-59 WK), Dose: 0, 250, 500, 1000 MG/KG IN SALINE 1/WK FOR DURATION OF STUDY (STUDY DURATION: 41-59 WK), Tumor Site: Type of Lesion: NASAL CAVITY: ADENOCARCINOMA, TRACHEA: PAPILLARY POLYP, LARYNX: PAPILLARY POLYP, Tumor Site: Type of Lesion: NASAL CAVITY: ADENOCARCINOMA, TRACHEA: PAPILLARY POLYP, LARYNX: PAPILLARY POLYP): active; positive
carcinogen call (Species: HAMSTER, Strain/Sex: SYRIAN/MALE, Route: SUBCUTANEOUS, Dose: 0, 250, 500, 1000 MG/KG IN SALINE 1/WK FOR DURATION OF STUDY (STUDY DURATION: 45-54 WK), Dose: 0, 250, 500, 1000 MG/KG IN SALINE 1/WK FOR DURATION OF STUDY (STUDY DURATION: 45-54 WK), Tumor Site: Type of Lesion: NASAL CAVITY: ADENOCARCINOMA, TRACHEA: PAPILLARY POLYP, LARYNX: PAPILLARY POLYP, Tumor Site: Type of Lesion: NASAL CAVITY: ADENOCARCINOMA, TRACHEA: PAPILLARY POLYP, LARYNX: PAPILLARY POLYP): active; positive
carcinogen call (Species: MOUSE, Strain/Sex: STRAIN-A/FEMALE, Route: ORAL, Dose: 0, 0.2 UMOL/ML IN DRINKING WATER FOR 10 WK (TOTAL DOSE: 0, 55 UMOL) FOLLOWED BY TAP WATER FOR 20 WK (STUDY DURATION: 30, Tumor Site: Type of Lesion: LUNG: TUMORS): active; positive
carcinogen call (Species: RAT, Route: ORAL, Tumor Site: Type of Lesion: KIDNEY, LIVER): active; positive
carcinogen call (Species: RAT, Strain/Sex: F344/FEMALE, Route: ORAL, Dose: 0, 150 MG/L IN DRINKING WATER 5 D/WK FOR 50 WK (TOTAL DOSE: 0; 5.6 MMOL) (STUDY DURATION: 124 WK), Dose: 0, 150 MG/L IN DRINKING WATER 5 D/WK FOR 50 WK (TOTAL DOSE: 0; 5.6 MMOL) (STUDY DURATION: 124 WK), Tumor Site: Type of Lesion: LIVER: HEPATOCELLULAR TUMOR): active; positive

O=CNC(N1CCOCC1)C(Cl)(Cl)Cl (stereo not given)
carcinogen call (Species: RAT, Strain/Sex: WISTAR/FEMALE, Route: ORAL, Dose: 0, 67, 330, 665 MG/KG IN DIET LESS THAN 2 YR (STUDY DURATION: LESS THAN 2 YR), Dose: 0, 67, 330, 665 MG/KG IN DIET LESS THAN 2 YR (STUDY DURATION: LESS THAN 2 YR)): inactive; negative
carcinogen call (Species: RAT, Strain/Sex: WISTAR/MALE, Route: ORAL, Dose: 0, 67, 330, 665 MG/KG IN DIET LESS THAN 2 YR (STUDY DURATION: LESS THAN 2 YR), Dose: 0, 67, 330, 665 MG/KG IN DIET LESS THAN 2 YR (STUDY DURATION: LESS THAN 2 YR)): inactive; negative

CC(/C=C/C=C(\C)C(=O)O[C@@H]1O[C@H](CO[C@@H]2O[C@H](CO)[C@@H](O)[C@H](O)[C@H]2O)[C@@H](O)[C@H](O)[C@H]1O)=C\C=C\C=C(C)\C=C\C=C(/C)C(=O)O[C@@H]1O[C@H](CO[C@@H]2O[C@H](CO)[C@@H](O)[C@H](O)[C@H]2O)[C@@H](O)[C@H](O)[C@H]1O
carcinogen call (Species: MOUSE, Strain/Sex: C57BL/FEMALE, Route: ORAL, Dose: 0, 0.2, 0.8% IN DRINKING WATER FOR 95 WK (STUDY DURATION: 95 WK), Dose: 0, 0.2, 0.8% IN DRINKING WATER FOR 95 WK (STUDY DURATION: 95 WK)): inactive; negative
carcinogen call (Species: MOUSE, Strain/Sex: C57BL/MALE, Route: ORAL, Dose: 0, 0.2, 0.8% IN DRINKING WATER FOR 95 WK (STUDY DURATION: 95 WK), Dose: 0, 0.2, 0.8% IN DRINKING WATER FOR 95 WK (STUDY DURATION: 95 WK)): inactive; negative

Cc1c2ccccc2c(C=O)c2ccc3ccccc3c12
carcinogen call (Species: RAT, Strain/Sex: SPRAGUE-DAWLEY/FEMALE (13/GROUP), Route: SUBCUTANEOUS, Dose: 0.2 UMOL 3X A WK FOR 20 DOSES (STUDY DURATION: 52 WK), Tumor Site: Type of Lesion: MAMMARY: ADENOCARCINOMA): active; positive (15%)
carcinogen call (Species: RAT, Strain/Sex: SPRAGUE-DAWLEY/FEMALE (13/GROUP), Route: SUBCUTANEOUS, Dose: 0.2 UMOL 3X A WK FOR 20 DOSES (STUDY DURATION: 52 WK), Tumor Site: Type of Lesion: SUBCUTANEOUS, SARCOMA): active; positive (85%)

CCOS(=O)(=O)OCC
carcinogen call (Species: RAT, Route: ORAL, Tumor Site: Type of Lesion: FORESTOMACH): active; positive
carcinogen call (Species: RAT, Route: SUBCUTANEOUS, Tumor Site: Type of Lesion: INJECTION SITE): active; positive

c1ccc2nc3c(ccc4ccccc43)cc2c1
carcinogen call (Species: MOUSE, Strain/Sex: SWISS/FEMALE, Route: INTRAPERITONEAL, Dose: 0, 1.05 UMOL GIVEN AS 150 NMOL IN 5 µL DMSO WITHIN 24 HR OF BIRTH, 300 NMOL IN 10 µL DMSO ON D 8 OF LIFE, AND 600 NMOL I, Tumor Site: Type of Lesion: LUNG: ADENOMA): active; positive
carcinogen call (Species: MOUSE, Strain/Sex: SWISS/MALE, Route: INTRAPERITONEAL, Dose: 0, 1.05 UMOL GIVEN AS 150 NMOL IN 5 µL DMSO WITHIN 24 HR OF BIRTH, 300 NMOL IN 10 µL DMSO ON D 8 OF LIFE, AND 600 NMOL I, Tumor Site: Type of Lesion: LUNG: ADENOMA, LIVER: NEOPLASTIC NODULE): active; positive
carcinogen call (Species: RAT, Strain/Sex: OSBORNE-MENDEL/FEMALE, Route: LUNG IMPLANT, Dose: 0, 0.1, 0.3, 1.0 MG IN BEESWAX/TRICAPRYLIN (STUDY DURATION: LIFETIME), Dose: 0, 0.1, 0.3, 1.0 MG IN BEESWAX/TRICAPRYLIN (STUDY DURATION: LIFETIME)): inactive; negative

ClC(Cl)=C(Cl)Cl
carcinogen call (Species: MOUSE, Strain/Sex: B6C3F1/FEMALE, Route: GAVAGE, Dose: 0, 386, 772 MG/KG, TWA FOR 78 WKS, Dose: 0, 386, 772 MG/KG, TWA FOR 78 WKS, Tumor Site: Type of Lesion: LIVER: HEPATOCELLULAR CARCINOMA): active; positive
carcinogen call (Species: MOUSE, Strain/Sex: B6C3F1/FEMALE, Route: INHALATION, Dose: 0, 100, 200 PPM 6 HR/D, 5 D/WK FOR 103 WK, Dose: 0, 100, 200 PPM 6 HR/D, 5 D/WK FOR 103 WK, Tumor Site: Type of Lesion: LIVER: HEPATOCELLULAR CARCINOMA, HEPATOCELLULAR ADENOMA OR CARCINOMA): active; positive
carcinogen call (Species: MOUSE, Strain/Sex: B6C3F1/MALE, Route: GAVAGE, Dose: 0, 536, 1072 MG/KG, TWA FOR 78 WKS, Dose: 0, 536, 1072 MG/KG, TWA FOR 78 WKS, Tumor Site: Type of Lesion: LIVER: HEPATOCELLULAR CARCINOMA): active; positive
carcinogen call (Species: MOUSE, Strain/Sex: B6C3F1/MALE, Route: INHALATION, Dose: 0, 100, 200 PPM 6 HR/D, 5 D/WK FOR 103 WK, Dose: 0, 100, 200 PPM 6 HR/D, 5 D/WK FOR 103 WK, Tumor Site: Type of Lesion: LIVER: HEPATOCELLULAR ADENOMA, HEPATOCELLULAR CARCINOMA): active; positive
carcinogen call (Species: RAT, Strain/Sex: F344/FEMALE, Route: INHALATION, Dose: 0, 200, 400 PPM 6 HR/D, 5 D/WK FOR 103 WK, Dose: 0, 200, 400 PPM 6 HR/D, 5 D/WK FOR 103 WK, Tumor Site: Type of Lesion: HEMATOPOIETIC SYSTEM: MONONUCLEAR CELL LEUKEMIA): active; positive
carcinogen call (Species: RAT, Strain/Sex: F344/MALE, Route: INHALATION, Dose: 0, 200, 400 PPM 6 HR/D, 5 D/WK FOR 103 WK, Dose: 0, 200, 400 PPM 6 HR/D, 5 D/WK FOR 103 WK, Tumor Site: Type of Lesion: HEMATOPOIETIC SYSTEM: MONONUCLEAR CELL LEUKEMIA): active; positive

C=CCOC(=O)CC(C)C
carcinogen call (Species: MOUSE, Strain/Sex: B6C3F1/FEMALE, Route: GAVAGE, Dose: 0, 31, 62 MG/KG IN CORN OIL FOR 103 WK, Dose: 0, 31, 62 MG/KG IN CORN OIL FOR 103 WK, Tumor Site: Type of Lesion: LYMPHATIC SYSTEM: MALIGNANT LYMPHOMA): active; positive
carcinogen call (Species: RAT, Strain/Sex: F344/MALE, Route: GAVAGE, Dose: 0, 31, 62 MG/KG IN CORN OIL FOR 103 WK, Dose: 0, 31, 62 MG/KG IN CORN OIL FOR 103 WK, Tumor Site: Type of Lesion: HEMATOPOIETIC SYSTEM (LEUKEMIA): MONONUCLEAR CELL LEUKEMIA): active; positive
